Experimental findings from patent publication US4762839A, “Quinazolinone copmpounds useful for the prophyloxis and treatment of diabetic complications” (priority 1985, dated 1988) are described below.

Molecules are shown by their SMILES. Counter-ions that a name gives are not always drawn.

One data set deals with T1, aldose reductase (Oryctolagus cuniculus, UniProt P15122).
T1 construct: Aldose reductase was obtained from lens of male rabbit; from tissue; host or cells: lens of male rabbit (weighing 2.5-3.5 kg)
Kind of data set: Aldose reductase inhibitory activity. As to conditions: aldose reductase from lens of male rabbit. It is filed as biochemical. Here is the method:
Aldose reductase was obtained from lens of male rabbit (weighing 2.5-3.5 kg) in the same manner as described in J. Biol. Chem., Vol. 240, 877-882 (1965). The inhibitory activity of the test compounds against the aldose reductase was measured in the same manner as described in Biochim. Biophys. Acta., Vol. 128, 474-482 (1966).

The test system of another data set is ddY male mice. Kind of data set: Acute toxicity and observation of symptoms. It counts as in vivo. The note with it: for abnormal symptoms (dysbasia, areflexia, astasia, blepharoptosis, dyspnea, skin flush, lacrimation, etc.): mouse, in vivo, po; for mortality (acute toxicity): oral, suspension in 0.5% carboxymethyl cellulose, observed for 14 days, dose not given.

What is called IC50 is the midpoint of a concentration-inhibition curve. A lower IC50 goes with greater potency in that assay. With `CN1C(=O)Nc2ccc(Cl)cc2C12NC(=O)NC2=O` (stereo not shown) [Test Compound 1, 6-Chloro-3-methyl-spiro[1,2,3,4-tetrahydroquinazoline-4,4'-imidazolidine]-2,2',5'-trione], 56 nM corresponded to half-maximal inhibition on aldose reductase (IC50). Also, in the data set on ddY male mice, the “abnormal symptoms (dysbasia, areflexia, astasia, blepharoptosis, dyspnea, skin flush, lacrimation, etc.)” value is “there was not observed any abnormal symptom” and the “mortality (acute toxicity)” value is on record as “no mouse died”. On aldose reductase, `CN1C(=O)Nc2ccc(Cl)cc2C12NC(=O)NC2=O` (stereo not drawn) [Test Compound 2, d-6-Chloro-3-methyl-spiro[1,2,3,4-tetrahydroquinazoline-4,4'-imidazolidine]-2,2',5'-trione] showed a concentration for half-maximal inhibition (IC50) of 22 nM. For the same compound, in the data set with ddY male mice, the “abnormal symptoms (dysbasia, areflexia, astasia, blepharoptosis, dyspnea, skin flush, lacrimation, etc.)” value is “there was not observed any abnormal symptom” and the “mortality (acute toxicity)” value was “no mouse died”. On to `CN1C(=O)Nc2ccc(Cl)cc2C12NC(=O)NC2=O` (stereo not shown) [Test Compound 3, 6-Chloro-3-methyl-spiro[1,2,3,4-tetrahydroquinazoline-4,4'-imidazolidine]-2,2',5'-trione-1'-sodium salt], for which, at aldose reductase, the IC50 was 29 nM. On to `Cc1cc2c(cc1Cl)C1(NC(=O)NC1=O)N(C)C(=O)N2` (stereo not shown) [Test Compound 5, 6-Chloro-3,7-dimethyl-spiro[1,2,3,4-tetrahydroquinazoline-4,4'-imidazolidine]-2,2',5'-trione], for which, on aldose reductase, the IC50 was 30 nM.

Take `CN1C(=O)Nc2ccc(Br)cc2C12NC(=O)NC2=O` (stereo not shown) [Test Compound 6, 6-Bromo-3-methyl-spiro[1,2,3,4-tetrahydroquinazoline-4,4'-imidazolidine]-2,2',5'-trione]: the IC50 against aldose reductase was 52 nM. Still for that read-out and setting: in the case of `CN1C(=O)Nc2cc(Cl)c(Cl)cc2C12NC(=O)NC2=O` (stereo not shown) [Test Compound 7, 6,7-Dichloro-3-methyl-spiro[1,2,3,4-tetrahydroquinazoline-4,4'-imidazolidine]-2,2',5'-trione] it was 74 nM.

In the case of `CC(C)CN1C(=O)N(C)C2(NC(=O)NC2=O)c2cc(Cl)ccc21` (stereo not shown) [Test Compound 10, 1-Isobutyl-6-chloro-3-methyl-spiro[1,2,3,4-tetrahydroquinazoline-4,4'-imidazolidine]-2,2',5'-trione], the IC50 against aldose reductase amounted to 270 nM. In turn, `CN1C(=O)NC2(C1=O)c1ccccc1NC(=O)N2C` (stereo not shown) [Test Compound 11, 3,1'-Dimethyl-spiro[1,2,3,4-tetrahydroquinazoline-4,4'-imidazolidine]-2,2',5'-trione, reference compound] yielded an IC50 against aldose reductase of 10000 nM.

For `CN1C(=O)N(C)C2(C1=O)c1ccccc1NC(=O)N2C` (stereo not shown) [Test Compound 12, 3,1',3'-Trimethyl-spiro[1,2,3,4-tetrahydroquinazoline-4,4'-imidazolidine]-2,2',5'-trione, reference compound], on aldose reductase, the IC50 was greater than 50000 nM.
